Laboratory results from US8895756B2, “Bendamustine pharmaceutical compositions” (priority 2005, dated 2014).

Assay: HPLC stability of bendamustine (15 mg/mL, mannitol 25.5 mg/mL) in alcohol/water solutions at 5° C.
Assay type: physicochemical
Conditions: 5° C.
Description: A sample of each formulation was analyzed by HPLC after 0, 3, 6 and 24 hours when stored at 5° C.

[1] = 20% Butanol (2 layers, vortexed), 0 hours
[2] = 20% Butanol (2 layers, vortexed), 3 hours
[3] = 20% Butanol (2 layers, vortexed), 6 hours
[4] = 20% Butanol (2 layers, vortexed), 24 hours

Cl.Cn1c(CCCC(=O)O)nc2cc(N(CCCl)CCCl)ccc21 [bendamustine, 4-{5-[Bis(2-chloroethyl)amino]-1-methyl-2-benzimidazolyl}butyric acid]
HP1 (%) (10% n-Propanol, 6 hours): 0.70% | Purity (% Area) (10% n-Propanol, 6 hours): 98.92 % Area | Dimer (%) (10% n-Propanol, 24 hours): 0.28% | HP1 (%) (10% n-Propanol, 24 hours): 1.83% | Purity (% Area) (10% n-Propanol, 24 hours): 97.67 % Area | Dimer (%) [1]: 0.10% | HP1 (%) [1]: 0.23% | Purity (% Area) [1]: 99.54 % Area | Dimer (%) [2]: 0.11% | HP1 (%) [2]: 0.31% | Purity (% Area) [2]: 99.45 % Area | Dimer (%) [3]: 0.11% | HP1 (%) [3]: 0.40% | Purity (% Area) [3]: 99.30 % Area | Dimer (%) [4]: 0.14% | HP1 (%) [4]: 0.91% | Purity (% Area) [4]: 98.81 % Area | Dimer (%) (20% Ethanol, 0 hours): 0.10% | HP1 (%) (20% Ethanol, 0 hours): 0.22% | Purity (% Area) (20% Ethanol, 0 hours): 99.54 % Area | Dimer (%) (20% Ethanol, 3 hours): 0.11% | HP1 (%) (20% Ethanol, 3 hours): 0.30% | Purity (% Area) (20% Ethanol, 3 hours): 99.45 % Area | Dimer (%) (20% Ethanol, 6 hours): 0.11% | HP1 (%) (20% Ethanol, 6 hours): 0.39% | Purity (% Area) (20% Ethanol, 6 hours): 99.36 % Area | Dimer (%) (20% Ethanol, 24 hours): 0.15% | HP1 (%) (20% Ethanol, 24 hours): 0.96% | Purity (% Area) (20% Ethanol, 24 hours): 98.61 % Area | Dimer (%) (20% Iso-propanol, 0 hours): 0.11% | HP1 (%) (20% Iso-propanol, 0 hours): 0.21% | Purity (% Area) (20% Iso-propanol, 0 hours): 99.49 % Area | Dimer (%) (20% Iso-propanol, 3 hours): 0.12% | HP1 (%) (20% Iso-propanol, 3 hours): 0.31% | Purity (% Area) (20% Iso-propanol, 3 hours): 99.39 % Area | Dimer (%) (20% Iso-propanol, 6 hours): 0.13% | HP1 (%) (20% Iso-propanol, 6 hours): 0.42% | Purity (% Area) (20% Iso-propanol, 6 hours): 99.22 % Area | Dimer (%) (20% Iso-propanol, 24 hours): 0.17% | HP1 (%) (20% Iso-propanol, 24 hours): 1.04% | Purity (% Area) (20% Iso-propanol, 24 hours): 98.61 % Area | Dimer (%) (20% Methanol, 0 hours): 0.11% | HP1 (%) (20% Methanol, 0 hours): 0.22% | Purity (% Area) (20% Methanol, 0 hours): 99.56 % Area | Dimer (%) (20% Methanol, 3 hours): 0.11% | HP1 (%) (20% Methanol, 3 hours): 0.38% | Purity (% Area) (20% Methanol, 3 hours): 99.31 % Area | Dimer (%) (20% Methanol, 6 hours): 0.12% | HP1 (%) (20% Methanol, 6 hours): 0.50% | Purity (% Area) (20% Methanol, 6 hours): 98.99 % Area | Dimer (%) (20% Methanol, 24 hours): 0.16% | HP1 (%) (20% Methanol, 24 hours): 1.15% | Purity (% Area) (20% Methanol, 24 hours): 98.31 % Area | Dimer (%) (20% Tert-butanol, 0 hours): 0.11% | HP1 (%) (20% Tert-butanol, 0 hours): 0.17% | Purity (% Area) (20% Tert-butanol, 0 hours): 99.59 % Area | Dimer (%) (20% Tert-butanol, 3 hours): 0.11% | HP1 (%) (20% Tert-butanol, 3 hours): 0.29% | Purity (% Area) (20% Tert-butanol, 3 hours): 99.48 % Area | Dimer (%) (20% Tert-butanol, 6 hours): 0.12% | HP1 (%) (20% Tert-butanol, 6 hours): 0.40% | Purity (% Area) (20% Tert-butanol, 6 hours): 99.35 % Area | Dimer (%) (20% Tert-butanol, 24 hours): 0.20% | HP1 (%) (20% Tert-butanol, 24 hours): 1.27% | Purity (% Area) (20% Tert-butanol, 24 hours): 98.35 % Area | Dimer (%) (20% n-Propanol, 0 hours): 0.13% | HP1 (%) (20% n-Propanol, 0 hours): 0.33% | Purity (% Area) (20% n-Propanol, 0 hours): 99.45 % Area | Dimer (%) (20% n-Propanol, 3 hours): 0.13% | HP1 (%) (20% n-Propanol, 3 hours): 0.26% | Purity (% Area) (20% n-Propanol, 3 hours): 99.42 % Area | Dimer (%) (20% n-Propanol, 6 hours): 0.14% | HP1 (%) (20% n-Propanol, 6 hours): 0.39% | Purity (% Area) (20% n-Propanol, 6 hours): 99.29 % Area
